Where two headings read alike, the source gives them in different places.
Columns and labels:
[1] = system: wild-type C57BL/6 mice; conditions: for seizure duration (typical) / seizure incidence (N=seizure/total) / seizure incidence (% of mice) / EC50 for induction of seizures: iv; for EC50 for induction of seizures: wild type mice, quantal dose-response
[2] = system: TASK-1−/−:TASK-3−/− double knockout mice; conditions: for seizure duration (typical) / EC50 for induction of seizures: iv
[3] = molecular target: TASK-1/TASK-3 heterodimeric channels (Rattus norvegicus, UniProt O54912+Q9ES08); type: cell-based; conditions: exemplar cell
[4] = system: homomeric and heteromeric TASK channels; experiment: Whole-cell recording, statements across all tested TASK channel constructs; type: cell-based
[5] = system: wild-type mice; experiment: Electroencephalogram recording of bupivacaine-induced seizures, wild type mice; type: in vivo; conditions: control (wild type) mice, two lower bupivacaine doses, n=6
[6] = system: TASK−/− mice; type: in vivo; conditions: two lower bupivacaine doses, n=6
[7] = C57BL/6, mouse, in vivo, 5 mg/kg
[8] = C57BL/6, mouse, in vivo, 10 mg/kg
[9] = C57BL/6 background (TASK-1−/−:TASK-3−/− double knockout), mouse, in vivo
[10] = C57BL/6, mouse, in vivo, 2.5 mg/kg
[11] = C57BL/6, mouse, in vivo, 3.75 mg/kg
[12] = C57BL/6, mouse, in vivo, 6.25 mg/kg
[13] = C57BL/6, mouse, in vivo, 7.5 mg/kg
[14] = TASK−/− mice, quantal dose-response

Chain of TASK-1/TASK-3 heterodimeric channels (O54912 whole entry): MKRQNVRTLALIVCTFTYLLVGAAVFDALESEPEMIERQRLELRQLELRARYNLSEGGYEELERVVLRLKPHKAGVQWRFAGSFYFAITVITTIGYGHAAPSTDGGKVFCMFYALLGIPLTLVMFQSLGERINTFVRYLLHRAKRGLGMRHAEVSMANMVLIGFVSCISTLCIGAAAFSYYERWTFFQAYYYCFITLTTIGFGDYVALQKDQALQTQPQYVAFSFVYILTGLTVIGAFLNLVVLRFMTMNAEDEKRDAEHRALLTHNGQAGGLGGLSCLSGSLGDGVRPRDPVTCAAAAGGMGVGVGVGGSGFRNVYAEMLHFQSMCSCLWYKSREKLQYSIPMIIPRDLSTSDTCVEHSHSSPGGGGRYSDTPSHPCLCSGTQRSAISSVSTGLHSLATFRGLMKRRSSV
Chain of TASK-1/TASK-3 heterodimeric channels (Q9ES08 whole entry): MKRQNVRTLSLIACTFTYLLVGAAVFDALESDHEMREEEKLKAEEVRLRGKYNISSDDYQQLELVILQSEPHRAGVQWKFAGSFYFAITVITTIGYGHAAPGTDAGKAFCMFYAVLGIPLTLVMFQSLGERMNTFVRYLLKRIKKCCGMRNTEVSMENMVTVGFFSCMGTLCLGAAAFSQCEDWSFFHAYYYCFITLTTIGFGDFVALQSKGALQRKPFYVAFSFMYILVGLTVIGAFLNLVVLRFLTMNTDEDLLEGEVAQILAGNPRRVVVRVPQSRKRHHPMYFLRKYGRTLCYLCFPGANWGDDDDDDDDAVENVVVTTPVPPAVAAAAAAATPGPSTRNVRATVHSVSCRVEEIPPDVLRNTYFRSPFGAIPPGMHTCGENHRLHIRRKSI

| Compound | seizure duration (typical) ([1]; C57BL/6, mouse, in vivo) [s] | seizure incidence (N=seizure/total) [1, 7] | seizure incidence (N=seizure/total) [1, 8] | seizure duration (typical) [2, 9] [s] | seizure incidence (N=seizure/total) [1, 10] | seizure incidence (N=seizure/total) [1, 12] | seizure incidence (N=seizure/total) [1, 13] | EC50 for induction of seizures [1] | EC50 for induction of seizures [2, 14] | other results |
| --- | --- | --- | --- | --- | --- | --- | --- | --- | --- | --- |
| CCN(CC)CC(=O)Nc1c(C)cccc1C [lidocaine] | < 25 | 0/15 | 4/15 | < 25 | – | – | – | – | – | seizure incidence (N=seizure/total) ([1]; C57BL/6, mouse, in vivo, 15 mg/kg): 10/15; seizure incidence (N=seizure/total) ([1]; C57BL/6, mouse, in vivo, 17.5 mg/kg): 13/15; EC50 for induction of seizures ([2]; mouse, in vivo): 17.3 ± 1.0 mg/kg |
| CCCN1CCCC[C@H]1C(=O)Nc1c(C)cccc1C [ropivacaine] | < 150 | 10/14 | 3/3 | < 150 | 0/14 | 14/14 | 11/11 | 4.7 ± 0.1 mg/kg | 6.0 ± 0.2 mg/kg | seizure incidence (N=seizure/total) [1, 11]: 0/14; seizure incidence (% of mice) [1, 7]: ~ 72%; seizure incidence (N=seizure/total) ([1]; C57BL/6, mouse, in vivo, 8.75 mg/kg): 9/9 |
| picrotoxin | – | – | – | – | – | – | – | ~ 1.0 mg/kg | ~ 1.0 mg/kg | effect on peak TASK-1/TASK-3 current ([3]; 100 μM): no discernible effect; decrease in peak TASK-1/TASK-3 current ([3]; 300 μM): < 10%; decrease in current amplitude (averaged, non-significant) ([4]; all tested TASK channel constructs, 50, 100 & 300 μM): ≤ 13% |
| CCCCN1CCCCC1C(=O)Nc1c(C)cccc1C (centres unmarked) [bupivacaine] | – | 14/14 | – | – | 1/14 | 12/12 | 4/4 | 3.4 ± 0.1 mg/kg | 4.5 ± 0.1 mg/kg | fold more potent than lidocaine for TASK channel inhibition [4]: 3.1- to 4.4 fold; fold more potent than ropivacaine for TASK channel inhibition ([4]; across TASK channels): 1.4- to 1.7 fold; electroencephalogram peak frequency during seizures [5]: 3.4 ± 0.4 Hz; electroencephalogram peak frequency during seizures [6]: ~ 4.4 ± 0.2 Hz; fold more potent for induction of seizures than ropivacaine ([1]; C57BL/6, mouse, in vivo): ~ 1.4 fold; seizure incidence (% of mice) [1, 11]: ~ 71%; seizure duration (typical) ([1]; mouse, in vivo): significantly longer in duration; fold more potent for induction of seizures than ropivacaine [2, 9]: ~ 1.4 fold |

Source: PMC3211141 (Anesthesiology, 2011)
